Data published in US5281628A, “9-amino-7-(substituted)-6-demethyl-6-deoxytetracyclines” (American Cyanamid Company, priority 1991, dated 1994).
Structures can show the parent of a compound that is named as a salt.

Legend:
[1] = test system: E. coli S30 Ribosomes, Wild Type (tetracycline sensitive); assay: In vitro protein translation with E. coli S30 ribosomes, wild type; type: biochemical; settings: for inhibition of protein synthesis on wild type ribosomes (in words): coupled transcription and translation system
Procedure: (§1) The E. coli in vitro translation system can be used to study not only the mechanism of protein translation itself, but also the effect that various compounds may have on protein synthesis. The system can be set up to function as a coupled transcription and translation system or as a translation only system depending on whether DNA or RNA is added to initiate protein synthesis. In this way, compounds affecting either RNA synthesis and/or protein synthesis can be studied. Protein synthesis is monitored by the incorporation of radiolabeled amino acids into trichloroacetic acid precipitable material. The system used is based upon literature methods [G. Zubay, Ann. Rev. Genet., 7: 267-287(1973) and J. Collins, Gene, 6: 28-42 (1979)].
(§2) The system used to study tetracycline protein synthesis inhibition is as follows:
(§3) An S30 extract (supernatant from a 30,000×G centrifugation of lysed cells) of either tetracycline sensitive or tetracycline resistant (tetM+) cells is combined with a mixture of low molecular weight compounds required for protein synthesis which include a mixture of 19 amino acids, methionine, ^35 S-methionine, plasmid template DNA and either dimethylsulfoxide (DMSO) or the tetracycline to be tested dissolved and diluted in DMSO. This mixture is incubated at 37° C. for 30 minutes. Following the incubation, 2.5 μl of the 10 μl reaction is removed and added to 0.5 ml of 1N sodium hydroxide. The solution is incubated an additional 15 minutes at 37° C., to destroy any m-RNA and t-RNA. The incorporation of ^35 S-methionine is determined by precipitating the high molecular weight material in the sodium hydroxide aliquot with trichloroacetic acid (TCA), collecting the precipitated material on Whatman G/FC filters, drying the filters and counting the radioactivity retained on the filter. Percent inhibition (P.I.) of protein synthesis is determined by the following equation: [formula]

E. faecalis ATCC 29212 = assay: MIC, microtiter broth dilution; type: cell-based; settings: Enterococcus faecalis, ATCC29212, 18 h
Procedure: (§4) The minimum inhibitory concentration (MIC), the lowest concentration of the antibiotic which inhibits growth of the test organism, is determined by the microtiter broth dilution method using 0.1 ml Muller-Hinton II broth (Baltimore Biological Laboratories) per well. A suitable oxygen scavenger (i.e., cysteine or dithiothreitol) is added to the assay medium for the testing of compounds according to Formula I because of the sensitivity of those compounds to oxidation. An inoculum level of 1-5×10^5 CFU/ml and a range of antibiotic concentrations (32 0.004 μg/ml) are used.

[2] = test system: Coagulase negative staphylococci CI 664; assay: MIC, microtiter broth dilution; type: cell-based; settings: 18 h
Procedure: as §4

[3] = test system: E. coli S30 Ribosomes, tetM Variant (tetM protected ribosomes); assay: In vitro protein translation with E. coli S30 ribosomes, tetM variant; type: biochemical; settings: for inhibition of protein synthesis on tetM protected ribosomes (in words): coupled transcription and translation system
Procedure: as §1, §2, §3

[4] = test system: tetracycline sensitive and resistant Gram-positive and Gram-negative bacteria; assay: In vitro antibacterial evaluation, statements on the whole panel; type: cell-based
Procedure: as §4

[5] = test system: S. aureus UBMS 90-1 (tetM); assay: Acute lethal infections in mice; type: in vivo; settings: Staphylococcus aureus, sc, 168 h
Procedure: (§5) The therapeutic effects of tetracyclines are determined against acute lethal infections with various staphylococcal and E. coli strains. Female mice, strain CD-1 Charles River Laboratories, (20±2 grams) are challenged by an intraperitoneal injection of sufficient bacteria (suspended in broth or hog gastric mucin) to kill non-treated controls within 24-48 hours. Antibacterial agents, contained in 0.5 ml of 0.2% aqueous agar, are administered subcutaneously or orally 30 minutes after infection. When an oral dosing schedule is used, animals are deprived of food for 5 hours before and 2 hours after infection. Five mice are treated at each dose level. The 7 day survival ratios from three separate tests are pooled for calculation of median effective dose (ED50).

E. coli 311 (sens) = assay: Acute lethal infections in mice; type: in vivo; settings: Escherichia coli, sc, 168 h, Subcutaneous, Single Dose, 7 day survival
Procedure: as §5

[6] = test system: S. aureus UBMS 90-2 (tetM); assay: Acute lethal infections in mice; type: in vivo; settings: Staphylococcus aureus, 168 h
Procedure: as §5

S. aureus Smith (sens) = assay: Acute lethal infections in mice; type: in vivo; settings: Staphylococcus aureus, 168 h, Single Dose, 7 day survival
Procedure: as §5

E. coli UBMS 90-4 (tetM) = assay: Acute lethal infections in mice; type: in vivo; settings: Escherichia coli, sc, 168 h
Procedure: as §5

[7] = Wild Type S30 no DTT, 1.0 mg/ml
[8] = Wild Type S30 no DTT, 1:2 Dilution
[9] = Wild Type S30 no DTT, 1:4 Dilution
[10] = Wild Type S30 no DTT, 1:8 Dilution
[11] = Wild Type S30 no DTT, 1:16 Dilution
[12] = Wild Type S30 no DTT, 1:32 Dilution
[13] = Wild Type S30 no DTT, 1:64 Dilution
[14] = Wild Type S30 with DTT, 1.0 mg/ml
[15] = Wild Type S30 with DTT, 1:2 Dilution
[16] = Wild Type S30 with DTT, 1:4 Dilution
[17] = Wild Type S30 with DTT, 1:8 Dilution
[18] = Wild Type S30 with DTT, 1:16 Dilution
[19] = Wild Type S30 with DTT, 1:32 Dilution
[20] = Wild Type S30 with DTT, 1:64 Dilution
[21] = in the presence of cysteine (0.05%)
[22] = tetM S30 with DTT, 1:2 Dilution
[23] = tetM S30 with DTT, 1:4 Dilution
[24] = tetM S30 with DTT, 1:8 Dilution
[25] = tetM S30 with DTT, 1:16 Dilution
[26] = tetM S30 with DTT, 1:32 Dilution
[27] = tetM S30 with DTT, 1:64 Dilution

CN(C)c1cc(N)c(O)c2c1C[C@H]1C[C@H]3[C@H](N(C)C)C(O)=C(C(N)=O)C(=O)[C@@]3(O)C(O)=C1C2=O [A, 9-Amino-7-(dimethylamino)-6-demethyl-6-deoxytetracycline hydrochloride]
% Inhibition [1, 7]: 88%
Counts [1, 7]: 52595
% Inhibition [1, 8]: 82%
Counts [1, 8]: 80494
% Inhibition [1, 9]: 79%
Counts [1, 9]: 95015
% Inhibition [1, 10]: 72%
Counts [1, 10]: 130209
% Inhibition [1, 11]: 55%
Counts [1, 11]: 205392
% Inhibition [1, 12]: 35%
Counts [1, 12]: 297786
% Inhibition [1, 13]: 46%
Counts [1, 13]: 245494
% Inhibition [1, 14]: 96%
Counts [1, 14]: 38121
% Inhibition [1, 15]: 93%
Counts [1, 15]: 60891
% Inhibition [1, 16]: 89%
Counts [1, 16]: 92203
% Inhibition [1, 17]: 84%
Counts [1, 17]: 143215
% Inhibition [1, 18]: 75%
Counts [1, 18]: 214831
% Inhibition [1, 19]: 73%
Counts [1, 19]: 238321
% Inhibition [1, 20]: 56%
Counts [1, 20]: 380103
inhibition of protein synthesis on wild type ribosomes (in words) [1]: effectively inhibit protein synthesis
MIC (E. faecalis ATCC 29212; [21]): 0.06 µg/mL
MIC [2, 21]: 0.003 µg/mL
inhibition of protein synthesis on tetM protected ribosomes (in words) [3]: effective in inhibiting protein synthesis
% Inhibition ([3]; tetM S30 no DTT, 1.0 mg/ml): 48%
Counts ([3]; tetM S30 no DTT, 1.0 mg/ml): 129780
% Inhibition ([3]; tetM S30 no DTT, 1:2 Dilution): 36%
Counts ([3]; tetM S30 no DTT, 1:2 Dilution): 158861
% Inhibition ([3]; tetM S30 no DTT, 1:4 Dilution): 18%
Counts ([3]; tetM S30 no DTT, 1:4 Dilution): 203184
% Inhibition ([3]; tetM S30 no DTT, 1:8 Dilution): 7%
Counts ([3]; tetM S30 no DTT, 1:8 Dilution): 231447
% Inhibition ([3]; tetM S30 no DTT, 1:16 Dilution): 0%
Counts ([3]; tetM S30 no DTT, 1:16 Dilution): 305633
% Inhibition ([3]; tetM S30 no DTT, 1:32 Dilution): 0%
Counts ([3]; tetM S30 no DTT, 1:32 Dilution): 349994
% Inhibition ([3]; tetM S30 no DTT, 1:64 Dilution): 0%
Counts ([3]; tetM S30 no DTT, 1:64 Dilution): 310723
% Inhibition ([3]; tetM S30 with DTT, 1.0 mg/ml): 68%
Counts ([3]; tetM S30 with DTT, 1.0 mg/ml): 145068
% Inhibition [3, 22]: 62%
Counts [3, 22]: 168574
% Inhibition [3, 23]: 49%
Counts [3, 23]: 226708
% Inhibition [3, 24]: 36%
Counts [3, 24]: 284606
% Inhibition [3, 25]: 16%
Counts [3, 25]: 375989
% Inhibition [3, 26]: 8%
Counts [3, 26]: 412967
% Inhibition [3, 27]: 0%
Counts [3, 27]: 507461
in vitro activity against tetracycline resistant strains carrying the tetM resistance determinant ([4]; S. aureus UBMS 88-5, 90-1 and 90-2, E. coli UBMS 89-1 and 90-4): good in vitro activity
effectiveness vs. susceptible strains compared with B ([4]; susceptible strains, comparator B): equally as effective
ED50 [5]: 0.3 mg/kg
ED50 (E. coli 311 (sens)): 2.8 mg/kg
ED50 ([6]; po): 1.6 mg/kg
ED50 ([6]; sc): 0.53 mg/kg
ED50 (S. aureus Smith (sens); Oral): 0.81 mg/kg
ED50 (S. aureus Smith (sens); sc, Subcutaneous): 0.34 mg/kg
ED50 (E. coli UBMS 90-4 (tetM)): 24 mg/kg

CN(C)c1ccc(O)c2c1C[C@H]1C[C@H]3[C@H](N(C)C)C(O)=C(C(N)=O)C(=O)[C@@]3(O)C(O)=C1C2=O [B, 7-(Dimethylamino)-6-demethyl-6-deoxytetracycline hydrochloride]
% Inhibition [1, 7]: 87%
Counts [1, 7]: 57696
% Inhibition [1, 8]: 83%
Counts [1, 8]: 76804
% Inhibition [1, 9]: 88%
Counts [1, 9]: 53400
% Inhibition [1, 10]: 64%
Counts [1, 10]: 162405
% Inhibition [1, 11]: 53%
Counts [1, 11]: 213077
% Inhibition [1, 12]: 33%
Counts [1, 12]: 306650
% Inhibition [1, 13]: 0%
Counts [1, 13]: 457601
% Inhibition [1, 14]: 93%
Counts [1, 14]: 58885
% Inhibition [1, 15]: 91%
Counts [1, 15]: 78961
% Inhibition [1, 16]: 87%
Counts [1, 16]: 111971
% Inhibition [1, 17]: 83%
Counts [1, 17]: 149792
% Inhibition [1, 18]: 76%
Counts [1, 18]: 207484
% Inhibition [1, 19]: 67%
Counts [1, 19]: 289304
% Inhibition [1, 20]: 41%
Counts [1, 20]: 518601
inhibition of protein synthesis on wild type ribosomes (in words) [1]: effectively inhibit protein synthesis
MIC (E. faecalis ATCC 29212; no cysteine stated): 0.25 µg/mL
MIC ([2]; no cysteine stated): 0.015 µg/mL
inhibition of protein synthesis on tetM protected ribosomes (in words) [3]: unable to inhibit protein synthesis
% Inhibition ([3]; tetM S30 no DTT, 1.0 mg/ml): 0%
Counts ([3]; tetM S30 no DTT, 1.0 mg/ml): 281528
% Inhibition ([3]; tetM S30 no DTT, 1:2 Dilution): 0%
Counts ([3]; tetM S30 no DTT, 1:2 Dilution): 258633
% Inhibition ([3]; tetM S30 no DTT, 1:4 Dilution): 0%
Counts ([3]; tetM S30 no DTT, 1:4 Dilution): 248904
% Inhibition ([3]; tetM S30 no DTT, 1:8 Dilution): 0%
Counts ([3]; tetM S30 no DTT, 1:8 Dilution): 289595
% Inhibition ([3]; tetM S30 no DTT, 1:16 Dilution): 0%
Counts ([3]; tetM S30 no DTT, 1:16 Dilution): 287498
% Inhibition ([3]; tetM S30 no DTT, 1:32 Dilution): 0%
Counts ([3]; tetM S30 no DTT, 1:32 Dilution): 262329
% Inhibition ([3]; tetM S30 no DTT, 1:64 Dilution): 0%
Counts ([3]; tetM S30 no DTT, 1:64 Dilution): 249242
% Inhibition ([3]; tetM S30 with DTT, 1.0 mg/ml): 17%
Counts ([3]; tetM S30 with DTT, 1.0 mg/ml): 371475
% Inhibition [3, 22]: 26%
Counts [3, 22]: 331439
% Inhibition [3, 23]: 17%
Counts [3, 23]: 373168
% Inhibition [3, 24]: 6%
Counts [3, 24]: 421533
% Inhibition [3, 25]: 0%
Counts [3, 25]: 493679
% Inhibition [3, 26]: 0%
Counts [3, 26]: 490283
% Inhibition [3, 27]: 0%
Counts [3, 27]: 452837
Antibacterial potency in the presence of cysteine ([4]; in the presence of cysteine versus without): not enhanced
ED50 [5]: 1.7 mg/kg
ED50 (E. coli 311 (sens)): 3.1 mg/kg
ED50 ([6]; po): 1.8 mg/kg
ED50 ([6]; sc): 1.8 mg/kg
ED50 (S. aureus Smith (sens); Oral): 0.53 mg/kg
ED50 (S. aureus Smith (sens); sc, Subcutaneous): 0.32 mg/kg
ED50 (E. coli UBMS 90-4 (tetM)): > 256 mg/kg
